Measurements: PubChem BioAssay AID248 (DTP/NCI, 2004)
Where “and” joins values, the source holds several entries; their conditions need not be identical. Equal entries are not always repeated. Inconclusive results and toxic doses are left out. Cut-off read from the data, not from the text of the source: active = T/C of 150% or more; inactive = T/C below 125%.

Tested on: L1210 leukemia ip in BDF1 mice, survival T/C
Assay: NCI In Vivo Anticancer Drug Screen. Data for tumor model L1210 Leukemia (intraperitoneal) in B6D2F1 (BDF1) mice
Conditions: endpoint: mean survival time, higher = longer survival
In short: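 Value reflects the ratio of survival in compound-treated mice to survival in vehicle-treated controls, with both groups carrying the same transplanted tumor.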

[1] = dose: 100.0 mg/kg/injection, schedule: Q01DX009 (ip), vehicle: saline with Tween-80
[2] = dose: 200.0 mg/kg/injection, schedule: Q01DX009 (ip), vehicle: saline with Tween-80
[3] = dose: 400.0 mg/kg/injection, schedule: Q01DX009 (ip), vehicle: saline with Tween-80
[4] = dose: 100.0 mg/kg/injection, schedule: Q04DX003 (ip), vehicle: saline with Tween-80
[5] = dose: 200.0 mg/kg/injection, schedule: Q04DX002 (ip), vehicle: saline with Tween-80
[6] = dose: 200.0 mg/kg/injection, schedule: Q04DX003 (ip), vehicle: saline with Tween-80
[7] = dose: 400.0 mg/kg/injection, schedule: Q04DX002 (ip), vehicle: saline with Tween-80
[8] = dose: 400.0 mg/kg/injection, schedule: Q04DX003 (ip), vehicle: saline with Tween-80
[9] = dose: 50.0 mg/kg/injection, schedule: Q01DX009 (ip), vehicle: Klucel (hydroxypropylcellulose) (HPC)
[10] = dose: 100.0 mg/kg/injection, schedule: Q01DX009 (ip), vehicle: Klucel (hydroxypropylcellulose) (HPC)
[11] = dose: 200.0 mg/kg/injection, schedule: Q01DX009 (ip), vehicle: Klucel (hydroxypropylcellulose) (HPC)
[12] = dose: 100.0 mg/kg/injection, schedule: Q04DX003 (ip), vehicle: Klucel (hydroxypropylcellulose) (HPC)
[13] = dose: 200.0 mg/kg/injection, schedule: Q04DX003 (ip), vehicle: Klucel (hydroxypropylcellulose) (HPC)
[14] = dose: 400.0 mg/kg/injection, schedule: Q04DX003 (ip), vehicle: Klucel (hydroxypropylcellulose) (HPC)
[15] = dose: 100.0 mg/kg/injection, schedule: Q01DX001 (ip), vehicle: carboxymethylcellulose (CMC)
[16] = dose: 200.0 mg/kg/injection, schedule: Q01DX001 (ip), vehicle: carboxymethylcellulose (CMC)
[17] = dose: 400.0 mg/kg/injection, schedule: Q01DX001 (ip), vehicle: carboxymethylcellulose (CMC)
[18] = dose: 400.0 mg/kg/injection, schedule: Q01DX009 (ip), vehicle: Klucel (hydroxypropylcellulose) (HPC)

Measured: T/C

COc1cc(/C(C)=C2\SC(=O)NC2=O)ccc1O
inactive: dose: 100.0 mg/kg/injection, schedule: Q01DX001 (ip), vehicle: saline 106 % of control | dose: 200.0 mg/kg/injection, schedule: Q01DX001 (ip), vehicle: saline 95 % of control | dose: 400.0 mg/kg/injection, schedule: Q01DX001 (ip), vehicle: saline 98 % of control

COC1OC2COc3ccccc3OC2C(NC#N)C1O (stereo not drawn)
inactive: [1] 97 % of control | [2] 96 % of control | [3] 89 % of control

CCCCCCCCCCCCNC(=O)C[N+](C)(C)Cc1ccc2c(c1)CCCC2
inactive: dose: 2.5 mg/kg/injection, schedule: Q01DX009 (ip), vehicle: saline with Tween-80 106 % of control | dose: 5.0 mg/kg/injection, schedule: Q01DX009 (ip), vehicle: saline with Tween-80 94 % of control

Cc1ccc(Cl)cc1NC(=O)Nc1cccc(C(F)(F)F)c1
inactive: dose: 50.0 mg/kg/injection, schedule: Q01DX009 (ip), vehicle: saline with Tween-80 97 % of control and 90 % of control | dose: 100.0 mg/kg/injection, schedule: Q04DX002 (ip), vehicle: saline with Tween-80 102 % of control and 88 % of control | [4] 101 % of control | [5] 98 % of control and 90 % of control | [6] 96 % of control | [3] 105 % of control and 90 % of control | [7] 104 % of control and 91 % of control | [8] 91 % of control

Cc1[nH][nH]c(=O)c1N=Nc1ccccc1
inactive: [9] 94 % of control | [10] 98 % of control | [11] 98 % of control

CCCCCCC(=O)OCc1ccc(-c2ccccc2)cc1
inactive: dose: 75.0 mg/kg/injection, schedule: Q01DX001 (ip), vehicle: saline 90 % of control | dose: 150.0 mg/kg/injection, schedule: Q01DX001 (ip), vehicle: saline 87 % of control | dose: 300.0 mg/kg/injection, schedule: Q01DX001 (ip), vehicle: saline 92 % of control

CCCCCOc1nccc(N)n1
inactive: dose: 25.0 mg/kg/injection, schedule: Q01DX001 (ip), vehicle: saline with Tween-80 105 % of control | dose: 50.0 mg/kg/injection, schedule: Q01DX001 (ip), vehicle: saline with Tween-80 92 % of control | dose: 100.0 mg/kg/injection, schedule: Q01DX001 (ip), vehicle: saline with Tween-80 95 % of control

[N-]=C(CC(=O)c1ccccc1)c1ccccc1.[N-]=C(CC(=O)c1ccccc1)c1ccccc1.[Ni+2]
inactive: dose: 12.5 mg/kg/injection, schedule: Q04DX003 (ip), vehicle: Klucel (hydroxypropylcellulose) (HPC) 90 % of control | dose: 25.0 mg/kg/injection, schedule: Q04DX003 (ip), vehicle: Klucel (hydroxypropylcellulose) (HPC) 93 % of control | dose: 50.0 mg/kg/injection, schedule: Q04DX003 (ip), vehicle: Klucel (hydroxypropylcellulose) (HPC) 91 % of control | [12] 90 % of control | [13] 93 % of control | [14] 90 % of control

CCOCCOCCOCCCNCC(=O)N1CCN(C(=O)CNCCCOCCOCCOCC)CC1
inactive: dose: 50.0 mg/kg/injection, schedule: Q01DX001 (ip), vehicle: carboxymethylcellulose (CMC) 92 % of control | [15] 101 % of control | [16] 103 % of control | [17] 92 % of control

CC(=O)Nc1c(C)cc(C)cc1C
inactive: [9] 105 % of control | [10] 106 % of control | [12] 96 % of control | [11] 103 % of control | [13] 102 % of control | [18] 103 % of control | [14] 104 % of control

COc1ccc(NC(=O)NCc2ccccc2Cl)c(OC)c1
inactive: [10] 102 % of control | [11] 96 % of control | [18] 98 % of control

CC(C)=CC/C(C)=C/C=N\Nc1ccc([N+](=O)[O-])cc1[N+](=O)[O-]
inactive: [4] 98 % of control | [6] 95 % of control | [8] 93 % of control

N/C(=N\O)c1ccncc1
inactive: dose: 100.0 mg/kg/injection, schedule: Q01DX009 (ip), vehicle: saline 94 % of control | dose: 200.0 mg/kg/injection, schedule: Q01DX009 (ip), vehicle: saline 96 % of control

CC(C)(C)c1cc(N)cc(C(C)(C)C)c1O
inactive: [5] 87 % of control | [7] 90 % of control

COc1ccc(OC)c(C(C)(O)CC(=O)O)c1 (stereo not drawn)
inactive: [1] 100 % of control | [4] 96 % of control | [2] 105 % of control | [6] 93 % of control | [3] 97 % of control | [8] 101 % of control

Cc1ccnc(NC(=O)NCCCl)c1
inactive: [15] 103 % of control | [16] 108 % of control | [17] 108 % of control

CCOC(=O)C1C2C=CC(N3C(=O)c4ccccc4C3=O)CC21 (stereo not drawn)
inactive: dose: 100.0 mg/kg/injection, schedule: Q01DX009 (ip), vehicle: gum acacia 92 % of control | dose: 200.0 mg/kg/injection, schedule: Q01DX009 (ip), vehicle: gum acacia 91 % of control | dose: 400.0 mg/kg/injection, schedule: Q01DX009 (ip), vehicle: gum acacia 97 % of control

CCCCCOC(=O)C(C)(O)C(Cl)c1ccccc1 (stereo not drawn)
inactive: dose: 100.0 mg/kg/injection, schedule: Q04DX002 (ip), vehicle: saline 102 % of control and 106 % of control | dose: 200.0 mg/kg/injection, schedule: Q04DX002 (ip), vehicle: saline 98 % of control and 103 % of control | dose: 400.0 mg/kg/injection, schedule: Q04DX002 (ip), vehicle: saline 91 % of control | dose: 600.0 mg/kg/injection, schedule: Q04DX002 (ip), vehicle: saline 117 % of control

CCOC(=O)/C(=C\c1ccccc1)P(=O)(OCC)c1ccccc1 (stereo not drawn)
inactive: dose: 25.0 mg/kg/injection, schedule: Q01DX009 (ip), vehicle: Klucel (hydroxypropylcellulose) (HPC) 91 % of control | [9] 92 % of control | [10] 96 % of control | [12] 95 % of control | [13] 96 % of control

O=C(O)/C=C/C(=O)Nc1ccc([N+](=O)[O-])cc1
inactive: [1] 101 % of control | [4] 107 % of control | [2] 102 % of control | [6] 101 % of control | [3] 95 % of control | [8] 107 % of control

O=C(O)CS(=O)(=O)c1ccc(Cl)cc1
inactive: [1] 109 % of control | [2] 102 % of control | [3] 86 % of control

COC(OC)c1cc(=O)[nH]c(=S)n1Cl
inactive: [10] 86 % of control | [12] 102 % of control | [11] 91 % of control | [13] 107 % of control | [18] 91 % of control | [14] 105 % of control
